Measurements from patent US20020037931A1, “Substituted nitrated catechols, their use in the treatment of some central and peripheral nervous system disorders and pharmaceutical compositions containing them” (priority 2000, published 2002).

Legend:
COMT [1] = assay: COMT activity (methylation of adrenaline to metanephrine) in rat liver homogenates; type: biochemical; conditions: rat liver homogenate; test compound 3 μM; means±SEM, n=4-8
COMT [2] = assay: COMT activity (methylation of adrenaline to metanephrine) in rat brain homogenates; type: biochemical; conditions: rat brain homogenate; test compound 100 nM; means±SEM, n=4-8
COMT [3] = target: T1, COMT (Homo sapiens, UniProt P21964); assay: COMT activity in intact SK-N-SH cell monolayers; type: cell-based; conditions: SK-N-SH cells; test compound 100 nM; means±SEM, n=4-8
T1 construct: COMT activity was evaluated in cell monolayers by the ability to methylate adrenaline; host or cells: SK-N-SH cells
T1 sequence (P21964 1-271): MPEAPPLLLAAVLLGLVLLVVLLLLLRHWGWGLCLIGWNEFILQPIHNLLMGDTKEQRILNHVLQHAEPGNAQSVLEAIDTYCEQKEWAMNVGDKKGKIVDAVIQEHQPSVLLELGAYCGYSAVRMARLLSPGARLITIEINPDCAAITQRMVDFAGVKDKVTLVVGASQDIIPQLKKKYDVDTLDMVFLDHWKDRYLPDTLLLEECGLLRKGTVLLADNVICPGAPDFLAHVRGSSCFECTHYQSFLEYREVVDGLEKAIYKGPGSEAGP

## O=C1CCCc2cc(O)c(O)c([N+](=O)[O-])c21 [Compound 1, 6,7-Dihydroxy-8-nitro-3,4-dihydro-2H-naphthalen-1-one]
COMT [1]
  COMT activity, Liver (% of control): 1.2 ± 0.2 % of control
COMT [2]
  COMT activity, Brain (% of control): 15 ± 4 % of control
COMT [3]
  COMT activity, SK-N-SH (% of control): 46 ± 1 % of control

## O=C1CCc2cc(O)c(O)c([N+](=O)[O-])c21 [Compound 2, 5,6-Dihydroxy-7-nitro-indan-1-one]
COMT [1]
  COMT activity, Liver (% of control): 1.3 ± 0.7 % of control
COMT [2]
  COMT activity, Brain (% of control): 9 ± 1 % of control
COMT [3]
  COMT activity, SK-N-SH (% of control): 24 ± 1 % of control

## COc1ccc(C=C2CCc3cc(O)c(O)c([N+](=O)[O-])c3C2=O)cc1OC [Compound 4, 2-(3,4-Dimethoxy-benzylidene)-6,7-dihydroxy-8-nitro-3,4-dihydro-2H-naphthalen-1-one]
COMT [1]
  COMT activity, Liver (% of control): 2.0 ± 1.0 % of control
COMT [2]
  COMT activity, Brain (% of control): 20 ± 2 % of control
COMT [3]
  COMT activity, SK-N-SH (% of control): 25 ± 1 % of control

## O=[N+]([O-])c1c(O)c(O)cc2c1C(=NO)CC2 [Compound 6, 5,6-Dihydroxy-7-nitro-indan-1-one Oxime]
COMT [1]
  COMT activity, Liver (% of control): 1.77 ± 0.1 % of control
COMT [2]
  COMT activity, Brain (% of control): 33 ± 1 % of control
COMT [3]
  COMT activity, SK-N-SH (% of control): 39 ± 3 % of control

## COc1ccc(C=C2Cc3cc(O)c(O)c([N+](=O)[O-])c3C2=O)cc1OC [Compound 7, 2-(3,4-Dimethoxy-benzylidene)-5,6-dihydroxy-7-nitro-indan-1-one]
COMT [1]
  COMT activity, Liver (% of control): 0.6 ± 0.3 % of control
COMT [2]
  COMT activity, Brain (% of control): 14 ± 1 % of control
COMT [3]
  COMT activity, SK-N-SH (% of control): 23 ± 1 % of control

## CN(C)c1ccc(C=C2Cc3cc(O)c(O)c([N+](=O)[O-])c3C2=O)cc1 [Compound 8, 2-(4-dimethylamino-benzylidene)-5,6-dihydroxy-7-nitro-indan-1-one]
COMT [1]
  COMT activity, Liver (% of control): 1.0 ± 0.1 % of control
COMT [2]
  COMT activity, Brain (% of control): 30 ± 4 % of control
COMT [3]
  COMT activity, SK-N-SH (% of control): 48 ± 3 % of control

## CN(C)c1ccc(C=C2CCc3cc(O)c(O)c([N+](=O)[O-])c3C2=O)cc1 [Compound 9, 2-(4-Dimethylamino-benzylidene)-6,7-dihydroxy-8-nitro-3,4-dihydro-2H-naphthalen-1-one]
COMT [1]
  COMT activity, Liver (% of control): 9.0 ± 1.6 % of control
COMT [2]
  COMT activity, Brain (% of control): 47 ± 5 % of control
COMT [3]
  COMT activity, SK-N-SH (% of control): 8 ± 1 % of control

## COc1cc(C=C2Cc3cc(O)c(O)c([N+](=O)[O-])c3C2=O)cc([N+](=O)[O-])c1O [Compound 10, 5,6-Dihydroxy-2-(4-hydroxy-3-methoxy-5-nitro-benzylidene)-7-nitro-indan-1-one]
COMT [1]
  COMT activity, Liver (% of control): 0.3 ± 0.1 % of control
COMT [2]
  COMT activity, Brain (% of control): 14 ± 1 % of control
COMT [3]
  COMT activity, SK-N-SH (% of control): 24 ± 2 % of control

## COc1cc(C=C2CCc3cc(O)c(O)c([N+](=O)[O-])c3C2=O)cc([N+](=O)[O-])c1O [Compound 11, 6,7-Dihydroxy-2-(4-hydroxy-3-methoxy-5-nitro-benzylidene)-8-nitro-3,4-dihydro-2H-naphthalen-1-one]
COMT [1]
  COMT activity, Liver (% of control): 1.1 ± 0.3 % of control
COMT [2]
  COMT activity, Brain (% of control): 32 ± 2 % of control
COMT [3]
  COMT activity, SK-N-SH (% of control): 47 ± 2 % of control

## O=C1C(=Cc2ccc(O)c(O)c2)Cc2cc(O)c(O)c([N+](=O)[O-])c21 [Compound 12, 2-(3,4-dihydroxy-benzylidene)-5,6-dihydroxy-7-nitro-indan-1-one]
COMT [1]
  COMT activity, Liver (% of control): 0.6 ± 0.0 % of control
COMT [2]
  COMT activity, Brain (% of control): 18 ± 1 % of control
COMT [3]
  COMT activity, SK-N-SH (% of control): 34 ± 1 % of control

## O=C1C(=Cc2ccc(O)c(O)c2)CCc2cc(O)c(O)c([N+](=O)[O-])c21 [Compound 13, 2-(3,4-Dihydroxy-benzylidene)-6,7-dihydroxy-8-nitro-3,4-dihydro-2H-naphthalen-1-one]
COMT [1]
  COMT activity, Liver (% of control): 2.3 ± 0.1 % of control
COMT [2]
  COMT activity, Brain (% of control): 27 ± 1 % of control
COMT [3]
  COMT activity, SK-N-SH (% of control): 46 ± 1 % of control

## O=C(CCc1ccccc1)c1ccc(O)c(O)c1[N+](=O)[O-] [Compound 14, 1-(3,4-Dihydroxy-2-nitro-phenyl)-3-phenyl-propan-1-one]
COMT [1]
  COMT activity, Liver (% of control): 0.3 ± 0.0 % of control
COMT [2]
  COMT activity, Brain (% of control): 5 ± 1 % of control
COMT [3]
  COMT activity, SK-N-SH (% of control): 5 ± 2 % of control

## O=C(CCCc1ccccc1)c1ccc(O)c(O)c1[N+](=O)[O-] [Compound 15, 1-(3,4-dihydroxy-2-nitro-phenyl)4-phenyl-butan-1-one]
COMT [1]
  COMT activity, Liver (% of control): 0.5 ± 0.0 % of control
COMT [2]
  COMT activity, Brain (% of control): 7 ± 2 % of control
COMT [3]
  COMT activity, SK-N-SH (% of control): 13 ± 4 % of control

## O=C1C(=Cc2cc(O)c(O)c([N+](=O)[O-])c2)Cc2cc(O)c(O)c([N+](=O)[O-])c21 [Compound 16, 2-(3,4-Dihydroxy-5-nitro-benzylidene)-5,6-dihydroxy-7-nitro-indan-1-one]
COMT [1]
  COMT activity, Liver (% of control): 2.0 ± 0.2 % of control
COMT [2]
  COMT activity, Brain (% of control): 20 ± 1 % of control
COMT [3]
  COMT activity, SK-N-SH (% of control): 92 ± 1 % of control

## CCCCC(=O)c1ccc(O)c(O)c1[N+](=O)[O-] [Compound 17, 1-(3,4-dihydroxy-2-nitro-phenyl)-pentan-1-one]
COMT [1]
  COMT activity, Liver (% of control): 0.4 ± 0.0 % of control
COMT [2]
  COMT activity, Brain (% of control): 8 ± 1 % of control
COMT [3]
  COMT activity, SK-N-SH (% of control): 24 ± 4 % of control

## O=C1c2ccccc2C(=O)c2c1cc(O)c(O)c2[N+](=O)[O-] [Compound 18, 2,3-Dihydroxy-1-nitro-anthraquinone]
COMT [1]
  COMT activity, Liver (% of control): 2.0 ± 0.0 % of control
COMT [2]
  COMT activity, Brain (% of control): 17 ± 1 % of control
COMT [3]
  COMT activity, SK-N-SH (% of control): 70 ± 5 % of control

## CCCC(=O)Oc1ccc(C(=O)CCc2ccccc2)c([N+](=O)[O-])c1OC(=O)CCC [Compound 19, Butyric acid, 6-butyryloxy-2-nitro-3-(3-phenyl-propionyl)-phenyl ester]
COMT [1]
  COMT activity, Liver (% of control): 0.2 ± 0.1 % of control
COMT [2]
  COMT activity, Brain (% of control): 8 ± 1 % of control
COMT [3]
  COMT activity, SK-N-SH (% of control): 0 ± 0 % of control

## CCOC(=O)Oc1ccc(C(=O)c2ccccc2)c([N+](=O)[O-])c1OC(=O)OCC [Compound 21, Carbonic acid, 4-benzoyl-2-ethoxycarbonyloxy-3-nitro-phenyl ester ethyl ester]
COMT [1]
  COMT activity, Liver (% of control): 0.3 ± 0.2 % of control
COMT [2]
  COMT activity, Brain (% of control): 11 ± 1 % of control
COMT [3]
  COMT activity, SK-N-SH (% of control): 1 ± 1 % of control

## CCOC(=O)Oc1ccc(C(=O)CCc2ccccc2)c([N+](=O)[O-])c1OC(=O)OCC [Compound 22, Carbonic acid, 2-ethoxycarbonyloxy-3-nitro-4-(3-phenyl-propionyl)-phenyl ester ethyl ester]
COMT [1]
  COMT activity, Liver (% of control): 0.3 ± 0.1 % of control
COMT [2]
  COMT activity, Brain (% of control): 9 ± 0 % of control
COMT [3]
  COMT activity, SK-N-SH (% of control): 12 ± 1 % of control

## CC(=O)OC(=Cc1ccccc1)c1ccc(OC(C)=O)c(OC(C)=O)c1[N+](=O)[O-] [Compound 46, Acetic Acid, 2-Acetoxy4-(I-acetoxy-2-phenyl-vinyl)-3-nitro-phenyl Ester]
COMT [3]
  COMT activity, SK-N-SH (% of control): 1 ± 1 % of control
